Experimental findings from ChEMBL document CHEMBL1158830, “Digitoxin inhibits the growth of cancer cell lines at concentrations commonly found in cardiac patients” (J Nat Prod, 2005) are described below.

One series deals with MCF7. The experiment in a line: Cytotoxicity against human MCF7 cells after 48 hrs by SRB assay. Conditions: MCF7, 48 h. Format: functional, cell-based. (In general: In SRB staining, fixed cells bind dye roughly in proportion to their protein.)
In another series the test system is UACC-62. The experiment in a line: Cytotoxicity against human UACC62 cells after 48 hrs by SRB assay. Format: functional, cell-based. As to conditions: UACC-62, 48 h.
The subject of series [1] is TK-10. The series is described as follows: Cytotoxicity against human TK10 cells after 48 hrs by SRB assay. Format: functional, cell-based. As to conditions: TK-10, 48 h.
Series [2] concerns TK-10. The series is described as follows: Induction of apoptosis in human TK10 cells assessed as necrotic cells at 3 nM for 48 hrs measured after 3 days of drug removal by fluorescence microscopy assay. Format: functional.
The subject of the next series is K562. The series is described as follows: Cytotoxicity against human K562 cells by XTT assay. Format: functional, cell-based.
Series [3] concerns TK-10. The experiment in a line: Induction of apoptosis in human TK10 cells assessed as viable cells at 3 nM for 48 hrs measured after 3 days of drug removal by fluorescence microscopy assay. Format: functional. Conditions: read-out: Activity.
In series [4] the target is DNA topoisomerase 2-alpha (Homo sapiens) (UniProt P11388). The series is described as follows: Inhibition of topoisomerase 2alpha-mediated cleavage of double-stranded pRYG DNA assessed as linear DNA at 100 nM by agarose gel electrophoresis.
For series [5], the system named is TK-10. The experiment in a line: Induction of apoptosis in human TK10 cells assessed as apoptotic cells at 3 nM for 48 hrs measured after 3 days of drug removal by fluorescence microscopy assay. Format: functional.
The species entered for a further series is Homo sapiens. The series is described as follows: Plasma concentration in human. Conditions: in vivo. It counts as ADME, organism-based.
Series [6] deals with DNA topoisomerase 2-beta (Homo sapiens) (UniProt Q02880). The experiment in a line: Inhibition of topoisomerase 2beta in human K562 cells assessed as cleavage of supercoiled pRYG DNA at 300 nM by TARDIS assay. Format: cell-based. As to conditions: TDE = time-dependent effect.
The target is the same in series [7]. The series is described as follows: Inhibition of topoisomerase 2beta in human K562 cells assessed as cleavage of supercoiled pRYG DNA at 300 nM after 0.5 hrs by TARDIS assay relative to control. It counts as cell-based.
Series [8] has as its target DNA topoisomerase 2-alpha (Homo sapiens) (UniProt P11388). The series is described as follows: Inhibition of topoisomerase 2alpha-mediated cleavage of double-stranded pRYG DNA assessed as linear DNA at 30 nM by agarose gel electrophoresis.
Series [9] shares this target. The experiment in a line: Inhibition of topoisomerase 2alpha-mediated cleavage of double-stranded pRYG DNA assessed as linear DNA at 100 uM by agarose gel electrophoresis.
In series [10] the target is DNA topoisomerase 2-beta (Homo sapiens) (UniProt Q02880). The series is described as follows: Inhibition of topoisomerase 2beta in human K562 cells assessed as cleavage of supercoiled pRYG DNA at 300 nM after 24 hrs by TARDIS assay. Format: cell-based.

SMILES strings stand for the structures. pIC50: −log10 of the molar value. Activity calls are given as the source filed them. No cut-off for these calls is given here.

Sequence of DNA topoisomerase 2-beta (Homo sapiens) (Q02880 whole entry): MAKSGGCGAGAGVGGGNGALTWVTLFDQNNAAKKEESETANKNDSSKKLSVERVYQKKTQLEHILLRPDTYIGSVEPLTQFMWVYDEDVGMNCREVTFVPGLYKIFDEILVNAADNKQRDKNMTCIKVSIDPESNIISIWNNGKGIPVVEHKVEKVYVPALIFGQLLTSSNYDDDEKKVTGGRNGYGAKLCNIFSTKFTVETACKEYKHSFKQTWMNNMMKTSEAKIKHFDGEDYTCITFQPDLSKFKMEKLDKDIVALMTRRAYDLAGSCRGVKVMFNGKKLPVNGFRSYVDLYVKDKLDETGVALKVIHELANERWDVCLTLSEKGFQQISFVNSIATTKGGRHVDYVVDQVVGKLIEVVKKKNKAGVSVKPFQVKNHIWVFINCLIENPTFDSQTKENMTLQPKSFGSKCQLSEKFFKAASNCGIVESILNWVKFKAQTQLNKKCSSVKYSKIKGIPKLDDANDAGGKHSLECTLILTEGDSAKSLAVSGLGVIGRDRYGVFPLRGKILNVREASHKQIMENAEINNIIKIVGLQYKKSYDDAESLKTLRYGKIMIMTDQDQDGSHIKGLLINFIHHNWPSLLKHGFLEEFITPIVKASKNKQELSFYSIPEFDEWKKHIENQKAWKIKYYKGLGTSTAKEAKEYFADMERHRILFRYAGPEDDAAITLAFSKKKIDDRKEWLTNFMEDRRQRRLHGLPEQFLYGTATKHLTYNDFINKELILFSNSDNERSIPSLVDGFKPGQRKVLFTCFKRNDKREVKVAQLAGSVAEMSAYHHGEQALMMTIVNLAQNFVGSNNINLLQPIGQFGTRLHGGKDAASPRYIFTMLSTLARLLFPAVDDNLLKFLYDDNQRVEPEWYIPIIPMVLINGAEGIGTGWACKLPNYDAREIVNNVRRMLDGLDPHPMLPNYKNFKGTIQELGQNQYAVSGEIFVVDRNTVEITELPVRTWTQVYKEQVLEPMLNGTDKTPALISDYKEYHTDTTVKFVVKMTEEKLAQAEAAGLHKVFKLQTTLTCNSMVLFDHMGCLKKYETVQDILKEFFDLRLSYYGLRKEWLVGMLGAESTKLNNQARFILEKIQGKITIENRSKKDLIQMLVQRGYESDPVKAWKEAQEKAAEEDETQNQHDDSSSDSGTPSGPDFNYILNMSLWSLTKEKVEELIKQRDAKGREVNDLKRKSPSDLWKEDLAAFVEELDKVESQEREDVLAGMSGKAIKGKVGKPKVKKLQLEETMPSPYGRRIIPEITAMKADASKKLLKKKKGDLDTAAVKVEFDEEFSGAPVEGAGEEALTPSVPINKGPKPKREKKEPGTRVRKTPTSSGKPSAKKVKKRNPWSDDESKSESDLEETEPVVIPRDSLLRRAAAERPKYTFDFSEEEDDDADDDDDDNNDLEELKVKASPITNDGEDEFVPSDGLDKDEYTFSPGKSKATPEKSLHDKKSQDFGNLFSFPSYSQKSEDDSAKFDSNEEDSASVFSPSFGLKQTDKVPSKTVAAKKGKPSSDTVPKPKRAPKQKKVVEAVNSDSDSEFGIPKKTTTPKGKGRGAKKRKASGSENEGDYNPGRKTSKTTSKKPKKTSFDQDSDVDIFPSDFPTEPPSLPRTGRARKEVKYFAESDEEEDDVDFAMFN
Sequence of DNA topoisomerase 2-alpha (Homo sapiens) (P11388 whole entry): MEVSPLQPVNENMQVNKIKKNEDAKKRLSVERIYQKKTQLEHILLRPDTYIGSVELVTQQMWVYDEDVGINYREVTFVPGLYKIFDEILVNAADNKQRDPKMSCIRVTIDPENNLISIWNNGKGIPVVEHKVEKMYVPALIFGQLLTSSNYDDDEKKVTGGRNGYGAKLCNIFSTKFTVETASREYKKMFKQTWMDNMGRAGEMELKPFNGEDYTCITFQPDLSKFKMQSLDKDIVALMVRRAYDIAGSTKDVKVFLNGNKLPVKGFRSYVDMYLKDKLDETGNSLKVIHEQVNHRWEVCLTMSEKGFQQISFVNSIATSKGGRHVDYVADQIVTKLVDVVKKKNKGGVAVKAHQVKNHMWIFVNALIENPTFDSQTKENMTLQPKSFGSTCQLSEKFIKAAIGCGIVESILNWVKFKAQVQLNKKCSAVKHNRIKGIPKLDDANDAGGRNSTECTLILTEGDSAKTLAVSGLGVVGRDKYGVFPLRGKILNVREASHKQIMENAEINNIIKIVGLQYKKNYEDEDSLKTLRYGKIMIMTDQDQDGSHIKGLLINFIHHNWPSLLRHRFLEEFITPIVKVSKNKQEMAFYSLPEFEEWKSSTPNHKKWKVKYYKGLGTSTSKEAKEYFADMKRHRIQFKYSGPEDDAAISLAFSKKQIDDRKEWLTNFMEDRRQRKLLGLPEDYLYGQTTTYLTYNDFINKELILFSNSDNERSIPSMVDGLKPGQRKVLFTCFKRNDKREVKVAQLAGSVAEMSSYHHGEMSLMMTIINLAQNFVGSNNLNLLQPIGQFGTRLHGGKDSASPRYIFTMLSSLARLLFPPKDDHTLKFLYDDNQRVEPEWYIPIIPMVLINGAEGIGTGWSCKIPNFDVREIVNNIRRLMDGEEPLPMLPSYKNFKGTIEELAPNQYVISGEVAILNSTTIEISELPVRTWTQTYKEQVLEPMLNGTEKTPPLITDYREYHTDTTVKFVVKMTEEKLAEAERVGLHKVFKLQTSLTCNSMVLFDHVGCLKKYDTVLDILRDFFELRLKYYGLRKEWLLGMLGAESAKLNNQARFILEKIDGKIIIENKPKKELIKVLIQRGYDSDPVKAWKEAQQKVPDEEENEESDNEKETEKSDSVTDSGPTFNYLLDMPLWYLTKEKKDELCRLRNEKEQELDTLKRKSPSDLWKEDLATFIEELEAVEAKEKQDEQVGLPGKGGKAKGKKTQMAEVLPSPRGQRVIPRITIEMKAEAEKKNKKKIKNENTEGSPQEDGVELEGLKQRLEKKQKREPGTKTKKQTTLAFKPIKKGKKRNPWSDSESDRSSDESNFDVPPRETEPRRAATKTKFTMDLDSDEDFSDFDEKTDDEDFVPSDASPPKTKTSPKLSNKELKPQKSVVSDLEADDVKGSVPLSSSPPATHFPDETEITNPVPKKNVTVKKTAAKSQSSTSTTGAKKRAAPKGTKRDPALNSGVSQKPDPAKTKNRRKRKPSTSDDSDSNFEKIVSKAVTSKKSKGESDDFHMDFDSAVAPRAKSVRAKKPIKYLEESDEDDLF

For orientation: pIC50 means −log10 of the IC50, conventionally taken in molar units. With `C[C@]12CC[C@H](O)C[C@H]1CC[C@@H]1[C@@H]2CC[C@]2(C)[C@@H](C3=CC(=O)OC3)CC[C@]12O` [DIGITOXIGENIN], the negative logarithm of the IC50 (pIC50) with MCF7 is 6.71; with UACC-62, 6.46; in the series with TK-10 [1], 7.12.

For the compound `C[C@H]1O[C@@H](O[C@H]2[C@@H](O)C[C@H](O[C@H]3[C@@H](O)C[C@H](O[C@H]4CC[C@@]5(C)[C@H](CC[C@@H]6[C@@H]5CC[C@]5(C)[C@@H](C7=CC(=O)OC7)CC[C@]65O)C4)O[C@@H]3C)O[C@@H]2C)C[C@H](O)[C@@H]1O` [DIGITOXIN], the pIC50 in the series on MCF7 was 7.99; in the series with K562 it was 8.19; in the series on UACC-62 it was 7.47; in the series with TK-10 [1], 8.49. In addition, the Activity in the series with TK-10 [2] was 6.6%; in the series on TK-10 [5] it was 41.3%; in series [6], “tde”. Moreover, the viability at 0.003 µM in the series on TK-10 [3] turned out to be 52.1%. The result in series [4] and in series [8] was inactive. Also, the concentration in the series filed under Homo sapiens is 19.6 nM. Moreover, the result in series [7], in series [9] and in series [10] was Active.

As to `C[C@]12CC[C@H](O)C[C@H]1CC[C@@H]1[C@@H]2CC[C@]2(C)[C@@H](C3=CC(=O)OC3)[C@@H](O)C[C@]12O` [GITOXIGENIN], the pIC50 is 5.74 in the series with MCF7, 5.55 in the series on UACC-62 and 6.38 in the series with TK-10 [1].

On to `C[C@H]1O[C@@H](O[C@H]2[C@@H](O)C[C@H](O[C@H]3[C@@H](O)C[C@H](O[C@H]4CC[C@@]5(C)[C@H](CC[C@@H]6[C@@H]5CC[C@]5(C)[C@@H](C7=CC(=O)OC7)[C@@H](O)C[C@]65O)C4)O[C@@H]3C)O[C@@H]2C)C[C@H](O)[C@@H]1O` [GITOXIN], for which the results for the pIC50 in the series on MCF7, in the series on UACC-62 and in the series with TK-10 [1] were 6.60, 6.43 and 6.88, respectively.

Turning to `COc1cc([C@@H]2c3cc4c(cc3[C@@H](O[C@@H]3O[C@@H]5CO[C@@H](C)O[C@H]5[C@H](O)[C@H]3O)[C@H]3COC(=O)[C@H]23)OCO4)cc(OC)c1O` [ETOPOSIDE], the pIC50 is 6.06 in the series with MCF7, 5.95 in the series with UACC-62 and 5.00 in the series on TK-10 [1].

As to `C[C@H]1O[C@@H](O[C@H]2[C@@H](O)C[C@H](O[C@H]3[C@@H](O)C[C@H](O[C@H]4CC[C@@]5(C)[C@H](CC[C@@H]6[C@@H]5C[C@@H](O)[C@]5(C)[C@@H](C7=CC(=O)OC7)CC[C@]65O)C4)O[C@@H]3C)O[C@@H]2C)C[C@H](O)[C@@H]1O` [DIGOXIN], the negative logarithm of the IC50 (pIC50) in the series with MCF7 was 7.62; in the series on K562, 7.55; in the series with UACC-62 it was 7.53; in the series on TK-10 [1], 7.84. In addition, the concentration in the series filed under Homo sapiens stood at 0.6 nM.

On to `C[C@]12CC[C@H](O)C[C@H]1CC[C@@H]1[C@@H]2C[C@@H](O)[C@]2(C)[C@@H](C3=CC(=O)OC3)CC[C@]12O` [DIGOXIGENIN], for which the negative logarithm of the IC50 (pIC50) with MCF7 is 6.29; in the series on UACC-62 it was 6.38; in the series with TK-10 [1], 6.50.
